From PMC6017603, “Speeding Up the Identification of Cystic Fibrosis Transmembrane Conductance Regulator-Targeted Drugs: An Approach Based on Bioinformatics Strategies and Surface Plasmon Resonance” (Molecules : A Journal of Synthetic Chemistry and Natural …, 2018)

Key:
NBD1 = conditions: cited from earlier work
ΔF508-NBD1 = target: T1, ΔF508-NBD1 (Mus musculus, UniProt P26361, DEL508-508); experiment: SPR direct binding to sensor chip-immobilized ΔF508-NBD1; parameters: species or system murine; conditions: for binding to ΔF508-NBD1 (SPR): increasing concentrations injected over immobilized ΔF508-NBD1; for Kd / RU of ligand bound to ΔF508-NBD1 at equilibrium (maximal RU): SPR; for Kd: Scatchard's plot analysis of equilibrium binding data, mean ± S.D. of two-three analyses, PBS, 0.05% P20, 5% DMSO, pH 7.4, 25 °C; for RU of ligand bound to ΔF508-NBD1 at equilibrium (maximal RU): mean ± s.d. of two-three separate analyses
T1 construct: Murine WT NBD1 and ΔF508-NBD1 were obtained from CFTR Folding Consortium; purchased CFTR Folding Consortium (obtained, not a commercial vendor)
T1 sequence (P26361 with tags, fused parts or gaps DEL508-508 limits assumed): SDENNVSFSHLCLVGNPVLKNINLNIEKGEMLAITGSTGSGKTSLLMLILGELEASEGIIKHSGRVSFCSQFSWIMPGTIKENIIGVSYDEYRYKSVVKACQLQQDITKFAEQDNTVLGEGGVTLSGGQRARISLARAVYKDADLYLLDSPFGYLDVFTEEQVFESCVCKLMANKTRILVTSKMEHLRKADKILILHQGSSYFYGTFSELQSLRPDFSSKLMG
Experimental: SPR measurements were performed on a BIAcore X-100 instrument (GE-Healthcare, Milwaukee, WI, USA), using research-grade CM5 carboxyl-methyl-dextran–coated sensor chips (GE-Healthcare). The murine ΔF508-NBD1 was resuspended at 20 µg/mL in 10 mM sodium acetate pH 4.0 and allowed to react with the first flow cell of a CM5 sensor chip pre-activated with 50 μL of 0.2 M EDC and 0.05 M NHS and deactivated by injection of HCl–ethanolamine. This procedure led to the immobilization of 11,000 RU, equal to approximately 400 fmol/mm^2 of protein. Similar results were obtained for the injection of BSA (20 µg/mL) onto the second flow cell of each sensor chip, used as a negative control and for blank subtraction. The appropriate immobilization of ΔF508-NBD1 was checked by injecting increasing concentrations of K8 in PBS, 0.05% surfactant P20 and 5% DMSO, pH 7.4 over the sensor chip for 90 s at 10 μL/min, 25 °C and then washed until dissociation was observed. The inclusion of 5% DMSO in the running buffer (not necessary for protein-protein interaction analysis) and the short association time were chosen to validate ΔF508-NBD1 binding availability in the experimental conditions used for the subsequent analysis of the compounds (see below).
For the evaluation of their capacity to directly bind to ΔF508-NBD1, increasing concentrations of the various compounds of the data-set were resuspended in PBS, 0.05% surfactant P20 and 5% DMSO, pH 7.4, injected over ΔF508-NBD1 or BSA surfaces for 90 s at 10 μL/min, 25 °C and then washed until dissociation was observed. Steady state analysis were performed by fitting the proper form of Scatchard’s equation for the plot of the bound RU at equilibrium versus the compound concentration in solution. When saturation binding was reached, Kd values were calculated. In the case no saturation could be reached due the limited solubility of the compound under test, the software provided a Kd value expected on the bases of the curve’s trend.

[1] = target: T2, K8/ΔF508-NBD1 interaction (Mus musculus, UniProt P26361, DEL508-508); experiment: SPR injection of compounds onto K8-saturated ΔF508-NBD1 surface; format: binding, murine; conditions: compounds at 150 μM; K8 1 µM saturating
T2 construct: Murine WT NBD1 and ΔF508-NBD1 were obtained from CFTR Folding Consortium; purchased ΔF508-NBD1: CFTR Folding Consortium (obtained); K8: Pro-Spec-Tany TechnoGene Ltd
T2 sequence (P26361 with tags, fused parts or gaps DEL508-508 limits assumed): as above
Experimental: In a further series of experiments, a saturating amount of K8 (1 µM) was injected on the ΔF508-NBD1 surface and allowed to reach an equilibrium binding. Then, the various compounds of the data-set (150 µM) were injected and their capacity to affect the binding of K8 to ΔF508-NBD1 evaluated.

[2] = target: T3, ΔF508-NBD1/K8 interaction (Mus musculus, UniProt P26361, DEL508-508); experiment: SPR competition assay: ΔF508-NBD1 binding to immobilized K8 in the presence of compounds; parameters: species or system murine; conditions: ΔF508-NBD1 600 nM, compound 500 μM; for ΔF508-NBD1 bound to immobilized K8 at equilibrium in the presence of compound: 5% DMSO, ΔF508-NBD1 alone 35 RU
T3 construct: Murine WT NBD1 and ΔF508-NBD1 were obtained from CFTR Folding Consortium; purchased ΔF508-NBD1: CFTR Folding Consortium (obtained); K8: Pro-Spec-Tany TechnoGene Ltd
T3 sequence (P26361 with tags, fused parts or gaps DEL508-508 limits assumed): as above
Experimental: K8 was used since, as a representative ΔF508-CFTR chaperones, has been repeatedly used for SPR studies and its binding site in ΔF508-CFTR has been mapped. To perform competition assays for the binding to ΔF508-NBD1 between the various compounds and K8, the latter was resuspended at 20 µg/mL in 10 mM sodium acetate pH 4.0 and allowed to react with the first flow cell of a CM5 sensor chip pre-activated with 50 μL of 0.2 M EDC and 0.05 M NHS and deactivated by injection of HCl–ethanolamine. This procedure led to the immobilization of 7800 RU of the protein, (equal to approximately 146 fmol/mm^2). Similar results were obtained for the injection of BSA (10 μg/mL) onto the second flow cell of each sensor chip, that was then used as a negative control and for blank subtraction. ΔF508-NBD1 (at 600 nM) in the absence or in the presence of the various compounds (all at 500 μM) in 0.05% surfactant P20 and 5% DMSO, pH 7.4, was injected over the K8 or BSA surfaces for 90 s at 10 μL/min, 25 °C and then washed until dissociation was observed.

Molecule | binding to ΔF508-NBD1 (SPR) (ΔF508-NBD1) | Kd (ΔF508-NBD1) | RU of ligand bound to ΔF508-NBD1 at equilibrium (maximal RU) (ΔF508-NBD1) | effect of compound injection on K8-saturated ΔF508-NBD1 surface [1] | further results
COc1ccc(Cl)cc1Nc1nc(-c2sc(NC(=O)c3ccccc3)nc2C)cs1 [C4a, reference compound] | do not bind | – | – | – | binding to NBD1 (NBD1): does not bind to NBD1
CSc1cccc(Nc2nc(-c3ccc(Br)cc3)cs2)c1 [Compound 4] | – | 99.3 ± 14.5 µM | 32.0 ± 4.2 RU | inability of compounds 4 and 6 to alter the binding of K8 | inhibition at 500 µM [2]: 50%
CSc1cccc(Nc2nc(-c3cccc(Cl)c3)cs2)c1 [Compound 5] | – | 40.3 ± 2.5 µM | 13.0 ± 1.4 RU | increase of bound RU | ΔF508-NBD1 bound to immobilized K8 at equilibrium in the presence of compound [2]: 45 RU
CSc1cccc(Nc2nc(-c3ccc4[nH]c(=O)oc4c3)cs2)c1 [Compound 6] | – | 198 ± 4.5 µM | 114.0 ± 5.6 RU | inability of compounds 4 and 6 to alter the binding of K8 | effect on the ΔF508-NBD1/K8 interaction [2]: ineffective
CSc1cccc(Nc2nc(-c3coc4ccccc34)cs2)c1 [Compound 7] | do not bind | – | 0 to 4 RU | – | –
K8: keratin 8, known CFTR chaperone, purchased recombinant protein (protein, UniProt P05787 1-483, looked up) Keratin, type II cytoskeletal …: MSIRVTQKSYKVSTSGPRAFSSRSYTSGPGSRISSSSFSRVGSSNFRGGLGGGYGGASGMGGITAVTVNQSLLSPLVLEVDPNIQAVRTQEKEQIKTLNNKFASFIDKVRFLEQQNKMLETKWSLLQQQKTARSNMDNMFESYINNLRRQLETLGQEKLKLEAELGNMQGLVEDFKNKYEDEINKRTEMENEFVLIKKDVDEAYMNKVELESRLEGLTDEINFLRQLYEEEIRELQSQISDTSVVLSMDNSRSLDMDSIIAEVKAQYEDIANRSRAEAESMYQIKYEELQSLAGKHGDDLRRTKTEISEMNRNISRLQAEIEGLKGQRASLEAAIADAEQRGELAIKDANAKLSELEAALQRAKQDMARQLREYQELMNVKLALDIEIATYRKLLEGEESRLESGMQNMSIHTKTTSGYAGGLSSAYGGLTSPGLSYSLGSSFGSGAGSSSFSRTSSSRAVVVKKIETRDGKLVSESSDVLPK | – | – | – | – | binding of K8 to immobilized ΔF508-NBD1 (ΔF508-NBD1; K8 600 nM, BSA surface as negative control): specifically binds

The next lines start with results.

binding to ΔF508-NBD1 (SPR) (ΔF508-NBD1) | Kd (ΔF508-NBD1) | RU of ligand bound to ΔF508-NBD1 at equilibrium (maximal RU) (ΔF508-NBD1) | Molecule | effect of compound injection on K8-saturated ΔF508-NBD1 surface [1] | further results
do not bind | – | – | CC(C)(C)c1cc(C(C)(C)C)c(NC(=O)c2c[nH]c3ccccc3c2=O)cc1O [VX770, Ivacaftor, reference compound] | – | binding to NBD1 (NBD1): does not bind to NBD1
– | 24.2 ± 6.2 µM | 163.7 ± 23.7 RU | Cc1ccc(NC(=O)C2(c3ccc4c(c3)OC(F)(F)O4)CC2)nc1-c1cccc(C(=O)O)c1 [VX809, Lumacaftor, reference compound] | increase of bound RU | ΔF508-NBD1 bound to immobilized K8 at equilibrium in the presence of compound [2]: 68 RU
